The nature of series [1]: Water intake of mice on administration of autoclaved DDS. As to conditions: male mice, at 4-day intervals for 3 months.
Series [2] relates to blood creatine kinase level. The experiment in a line: Measurement of blood creatine kinase (CK) level. As to conditions: administered for 3 months.
Series [3] deals with mouse muscles (SOL and EDL). Nature of the series: Measurement of tetanus isometric force. In kind it is in vivo, C57BL/6J mice. The note with it: SOL 150 Hz, 100V, 800 ms, EDL 100 Hz, 400 ms. The source says:
In the muscle contraction stimulation system, SOL muscle formed the peak plateau under the conditions of 150 Hz, 100 V and 800 ms. […] In this Example, the mice used in Example 6 were used. The mice were rested for a sufficient time after twitch stimulation, and then tetanic stimulation was applied to the mice. As stimulation at the time of formation of a stable graph in which the peak forms the plateau, 150 Hz (100V, 800 ms stimulation time) was used for Soleus, and 100 Hz (100V, 400 ms stimulation time) was used for EDL. Each of these values was used as the peak Isometric force for each muscle, and the results are plotted in unit of mN and shown in FIG. 9.

For series [4] the following is noted: mouse, in vivo, 2 mg/kg.
Series [5] relates to grip strength of mice. Nature of the series: Measurement of grip strength. Format: in vivo, C57BL/6J mice. The note with it: 2 mg/kg, 3 months. As to the method: To measure the grip strength of the mice, a grip strength meter (Bioseb) was used. The grip strength of the mice was measured by positioning the mice to grab the grid plate with the forelimbs, slowly pulling the tail in a horizontal direction, and determining the value at the time at which the forelimbs were detached from the grid.

For series [6], the system named is Caenorhabditis elegans. As to conditions: reported; cited from earlier work.
For series [7], the system named is bacterial growth. The experiment in a line: Bacterial growth inhibitory activity of autoclaved DDS. Format: cell-based. As to conditions: DDS added to bacterial medium and autoclaved, compared with control. As to the method:
Specifically, DDS was added to a bacterial medium and autoclaved, and then compared with a control.

The subject of series [8] is gastrocnemius (GA) and tibialis anterior (TA) muscle weight. The experiment in a line: Muscle weight of GA and TA. As to conditions: aged mice (23-month-old and 30-month-old), female and male, 2 mg/kg, 3 months. In kind it is in vivo, C57BL/6J mice. On the procedure:
In order to separate muscle from the mice, the mice were anesthetized by injection with sodium pentobarbital (100 mg/kg bodyweight). One gastrocnemius (GA) and one tibialis anterior (TA) were carefully separated from the hindlimb of each mouse, so that the muscle was not damaged, and the weight of each of the separated muscles was measured.

Series [9] deals with soleus (SOL) and extensor digitorum longus (EDL) muscle weight. The experiment in a line: Muscle weight of SOL and EDL. In kind it is in vivo, C57BL/6J mice. The note with it: aged mice (23-month-old and 30-month-old), female and male, 2 mg/kg, 3 months. As to the method:
In order to separate muscle from the mice, the mice were anesthetized by injection with sodium pentobarbital (100 mg/kg body weight). One soleus (SOL) and one extensor digitorum longus (EDL) were carefully separated from the hindlimb of each mouse, so that the muscle was not damaged, and the weight of each of the separated muscles was measured.

Series [10] deals with mouse muscles (SOL and EDL). Nature of the series: Measurement of twitch isometric force. Format: in vivo, C57BL/6J mice. As to conditions: SOL and EDL separated from treated mice, 0.2 Hz (100V) twitch stimulation. On the procedure: One end of the tendons was anchored to a tissue bath, which was filled with Ringer's solution and to which oxygen was smoothly supplied, and the other end was anchored to a FT03 isometric force transducer (Grass instruments, West Warwick, USA). The twitch and tetanus of the muscle were adjusted by the intensity of electric stimulation. The muscle was stabilized in Ringer's solution for 10 minutes, and then an experiment for muscle contraction function was carried out. To maximize the function of the muscle, the length of the muscle showing the highest response at 0.2 Hz (100V), twitch stimulation, was measured and assigned as Lo.

Setting [11] is: female mice, vs negative control.

Consider two compounds from US9226905B2 (SAMSUNG ELECTRONICS CO., LTD., priority 2011, dated 2016).

`CC(C)(C)NCC(O)c1cc(Cl)c(N)c(Cl)c1` (stereo not shown) [Clenbuterol]: in series [1], the water intake result was “increased”. Besides, the “blood creatine kinase level” value in series [2] (setting [11]) is given as “equal to or higher than that of the negative control”.
For `Nc1ccc(S(=O)(=O)c2ccc(N)cc2)cc1` [DDS, diaminodiphenylsulfone], the “muscle tetanic force (reduced with aging)” value in series [3] is reported as “effectively restored”. In addition, the “water intake vs control group” value in series [4] is given as “did not significantly differ”. Moreover, the grip strength entry in series [5] (18-month-old female mice) is “not distinct”; in [5] (23-month-old or older female mice), “significantly restored”; in [5] (male mice) it was “increased”. Also, the “increase of life span of Caenorhabditis elegans” value in series [6] was 20-30%. Moreover, the “bacterial growth inhibitory activity” value in series [7] is recorded as “maintained”. Further, the “weight of GA” value in series [8] is listed as “restored”. Moreover, the “weight of TA” value in series [8] is “restored”. In addition, the “weight of EDL” value in series [9] was “restored”. The “weight of SOL” value in series [9] is on record as “restored”. In addition, the “muscle twitch force (reduced with aging)” value in series [10] is listed as “effectively restored”. Besides, the “blood creatine kinase level” value in series [2] (18-month-old or older mice, 2 mg/kg) is “effectively decreases”; in [2] (setting [11]), “significantly reduced”.
